Results on seven compounds are retold here after patent publication US20100029598A1, “Extended Benzamide Derivatives as Modulators of the EP2 Receptor” (Bayer Schering Pharma AG, priority 2008, published 2010).

By IC50 is commonly meant the concentration needed to halve the response being measured.

Each structure is given as a SMILES string.

Assay [1] concerns the target T1, human Prostaglandin E2 (Subtype EP2) receptor (Homo sapiens, UniProt P43116).
T1 construct: host or cells: cells in a cell culture plate
The experiment in a line: cAMP antagonism assay (HTRF cAMP detection, in presence of PGE2). The following applies: cAMP antagonism test. In kind it is cell-based. An excerpt: 1. Detection of the Antagonism of the Human Prostaglandin E2 (Subtype EP2) Receptor Signal
1.1 Principle of Detection
(§1) The binding of PGE2 to the EP2 subtype of the human PGE2 receptor induces activation of membrane-associated adenylate cyclases and leads to the formation of cAMP. In the presence of the phosphodiesterase inhibitor IBMX, cAMP which has accumulated due to this stimulation and been released by cell lysis is employed in a competitive detection method. In this assay, the cAMP in the lysate competes with cAMP-XL665 for binding of an Eu cryptate-labelled anti-cAMP antibody.
(§2) The two lo signals are measured in a suitable measuring instrument with a time lag, i.e. after the background fluorescence has declined.
1.2.1 Antagonism assay (data for each well of a 384-well plate):
The substance solutions (0.75 μl) introduced into an assay plate and 30% DMSO were dissolved in 16 μl of a KRSB+IBMX stimulation solution (1×Krebs-Ringer Bicarbonate Buffer; Sigma-Aldrich # K-4002; including 750 μM 3-isobutyl-1-methylxanthine Sigma-Aldrich # I-7018), and then 15 μl thereof were transferred into a media-free cell culture plate which had been washed with KRSB shortly beforehand.
After preincubation at room temperature (RT) for 30 minutes, 5 μl of a 4×PGE2 solution (11 nM) were added, and incubation was carried out in the presence of the agonist at RT for a further 60 min (volume: ˜20 μl) before the reaction was then stopped by adding 5 μl of lysis buffer and incubated at RT for a further 20 min (volume: ˜25 μl). The cell lysate was then transferred into a measuring plate and measured in accordance with the manufacturer's information (cyclic AMP kit Cisbio International #62AMPPEC).
A general note: TR-FRET usually uses a lanthanide donor and a delayed reading to cut background.

For assay [2], the target named is T1, human Prostaglandin E2 (Subtype EP2) receptor. The experiment in a line: cAMP agonism assay (cellular agonism test). In kind it is cell-based.
Description: as §1, §2
1.2.2 Agonism Assay (Data for each Well of a 384-Well Plate): […]
After incubation at room temperature (RT; volume: ˜15 μl) for 60 minutes, the reaction was then stopped by adding 5 μl of lysis buffer and incubated at RT for a further 20 min (volume: ˜20 μl). The cell lysate was then transferred into a measuring plate and measured in accordance with the manufacturer's instructions (cyclic AMP kit Cisbio International #62AMPPEC).

Assay [3] relates to cumulus-oocyte complexes (cumulus expansion). In words: Cumulus expansion assay in vitro. The class given is cell-based, mice. The following applies: competing with PGE2. The method, then:
2.2 Cumulus Expansion Assay In Vitro
Folliculogenesis was induced in immature female mice (strain : CD1 (ICR) from Charles River) at an age of 14-18 days by a single dose (intraperitoneal) of 10 I.U. of PMSG (Pregnant Mare Serum Gonadotropin; Sigma G-4877, Lot 68H0909). 47-50 hours after the injection, the ovaries were removed and the cumulus-oocyte complexes were removed. The cumulus complex is not yet expanded at this stage.
The cumulus-oocyte complexes were then incubated with prostaglandin E2 (PGE2) (0.3 μM), vehicle control (ethanol) or test substances for 20-24 hours.
Medium: alpha-MEM medium with 0.1 mM IBMX, pyruvates (0.23 mM) glutamines (2 mM), pen/strep 100 IU/ml pen. and 100 μg/ml strep. and HSA (8 mg/ml). Cumulus expansion was then established through the division into four stages (according to Vanderhyden et al. Dev Biol. August 1990;140(2):307-317).

T1 sequence (P43116 whole entry): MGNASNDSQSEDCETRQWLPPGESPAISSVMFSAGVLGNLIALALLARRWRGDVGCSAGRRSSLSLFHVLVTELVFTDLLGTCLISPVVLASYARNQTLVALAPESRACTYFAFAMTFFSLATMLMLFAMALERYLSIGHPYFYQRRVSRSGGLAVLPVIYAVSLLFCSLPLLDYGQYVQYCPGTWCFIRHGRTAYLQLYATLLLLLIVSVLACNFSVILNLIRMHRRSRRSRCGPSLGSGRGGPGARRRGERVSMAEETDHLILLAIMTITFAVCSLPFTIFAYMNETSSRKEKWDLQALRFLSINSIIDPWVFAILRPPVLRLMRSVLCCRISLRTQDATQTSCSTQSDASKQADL

On to `COc1ccc(C(=O)NCCc2c(C)[nH]c3c(Cl)ccc(Cl)c23)cc1OC` [Example 5, N-[2-(4,7-dichloro-2-methyl-1H-indol-3-yl)ethyl]-3,4-dimethoxybenzamide], for which, in assay [1], the half-inhibitory concentration (IC50) was 1.9 µM. Same read-out and setting: the value for `COc1ccc(C(=O)NCCc2c(C)[nH]c3c(Cl)cccc23)cc1OC` [Example 1, N-[2-(7-chloro-2-methyl-1H-indol-3-yl)ethyl]-3,4-dimethoxy-benzamide] was 0.32 µM. On the same count and under the same terms, the value for `O=C(NCCc1c(C(F)(F)F)[nH]c2c(Cl)cccc12)c1cc2cc(Cl)ccc2[nH]1` [Example 30, N-[2-(7-chloro-2-trifluoromethyl-1H-indol-3-yl)ethyl]-5-chloro-1H-indole-2-carboxamide] was 0.67 µM; that for `COc1ccc(C(=O)NCCc2c(C)[nH]c3c(Cl)ccc(C)c23)cc1OC` [Example 17, N-[2-(7-chloro-2,4-dimethyl-1H-indol-3-yl)ethyl]-3,4-di-methoxybenzamide] was 0.72 µM. `Cc1[nH]c2c(Cl)cccc2c1CCNC(=O)c1cc2cc(F)ccc2[nH]1` [Example 7, N-[2-(7-chloro-2-methyl-1H-indol-3-yl)ethyl]-5-fluoro-1H-indole-2-carboxamide]: in assay [2], the “effect in the cellular agonism test” value is on record as “no inhibition”. Besides, the IC50 in assay [1] turned out to be 0.047 µM. As for `CC(C)Oc1ccc2c(=O)c3cc(C(=O)O)ccc3oc2c1` [AH 6809, reference compound], the “suppression of cumulus expansion” value in assay [3] (concentration of 100-200 μM) is listed as “approx. 30%”. For the compound `Cc1[nH]c2c(Cl)ccc(F)c2c1CCNC(=O)c1cc2cc(F)ccc2[nH]1` [Example 8, N-[2-(7-chloro-4-fluoro-2-methyl-1H-indol-3-yl)ethyl]-5-fluoro-1H-indole-2-carboxamide], the “suppression of cumulus expansion” value in assay [3] (concentration 5 μM) was “approx. 60%”. Moreover, the IC50 in assay [1] turned out to be 0.12 µM.
